Assay results: PubChem BioAssay AID330 (DTP/NCI, 2004)
“And” between values parts separate entries of the source, which are not always exact repeats. Equal entries are not always repeated. Inconclusive results and toxic doses are left out.

Tested on: P388 leukemia ip, CD2F1 mice, survival T/C
Assay: NCI In Vivo Anticancer Drug Screen. Data for tumor model P388 Leukemia (intraperitoneal) in CD2F1 (CDF1) mice
Settings: endpoint: median survival time, higher = longer survival
Method in brief: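 Mice carrying the transplanted tumor received test compound or vehicle. Survival was recorded in each group, and the value is the treated-group measurement divided by that of the vehicle-treated control group.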

[1] = dose: 100.0 mg/kg/injection, schedule: Q01DX009 (ip), vehicle: saline with Tween-80
[2] = dose: 200.0 mg/kg/injection, schedule: Q01DX009 (ip), vehicle: saline with Tween-80
[3] = dose: 12.5 mg/kg/injection, schedule: Q01DX009 (ip), vehicle: saline
[4] = dose: 200.0 mg/kg/injection, schedule: Q04DX003 (ip), vehicle: saline with Tween-80
[5] = dose: 12.5 mg/kg/injection, schedule: Q01DX005 (ip), vehicle: saline with Tween-80
[6] = dose: 25.0 mg/kg/injection, schedule: Q01DX005 (ip), vehicle: saline with Tween-80
[7] = dose: 200.0 mg/kg/injection, schedule: Q01DX005 (ip), vehicle: saline with Tween-80
[8] = dose: 50.0 mg/kg/injection, schedule: Q01DX005 (ip), vehicle: saline with Tween-80
[9] = dose: 100.0 mg/kg/injection, schedule: Q01DX005 (ip), vehicle: saline with Tween-80
[10] = dose: 60.0 mg/kg/injection, schedule: Q01DX005 (ip), vehicle: saline with Tween-80
[11] = dose: 120.0 mg/kg/injection, schedule: Q01DX005 (ip), vehicle: saline with Tween-80
[12] = dose: 240.0 mg/kg/injection, schedule: Q01DX005 (ip), vehicle: saline with Tween-80

CCSC(=O)OCC(F)([N+](=O)[O-])[N+](=O)[O-]
T/C (dose: 100.0 mg/kg/injection, schedule: Q04DX003 (ip), vehicle: saline): 108 % of control
T/C (dose: 200.0 mg/kg/injection, schedule: Q04DX003 (ip), vehicle: saline): 100 % of control
T/C (dose: 400.0 mg/kg/injection, schedule: Q04DX003 (ip), vehicle: saline): 104 % of control

Nc1nc2c(s1)CCC2
T/C (dose: 50.0 mg/kg/injection, schedule: Q01DX009 (ip), vehicle: saline with Tween-80): 118 % of control
T/C [1]: 104 % of control
T/C [2]: 93 % of control

CC(=O)OCc1ccc2ccccc2c1
T/C (dose: 100.0 mg/kg/injection, schedule: Q01DX009 (ip), vehicle: saline sonified): 100 % of control
T/C (dose: 200.0 mg/kg/injection, schedule: Q01DX009 (ip), vehicle: saline sonified): 100 % of control
T/C (dose: 400.0 mg/kg/injection, schedule: Q01DX009 (ip), vehicle: saline sonified): 100 % of control

CCCC[N+]1(CC)CCCCC1
T/C (dose: 3.12 mg/kg/injection, schedule: Q01DX009 (ip), vehicle: saline): 97 % of control
T/C (dose: 6.25 mg/kg/injection, schedule: Q01DX009 (ip), vehicle: saline): 113 % of control
T/C [3]: 106 % of control

COc1ccc2cc(O)ccc2c1
T/C [1]: 113 % of control
T/C [2]: 100 % of control
T/C (dose: 400.0 mg/kg/injection, schedule: Q01DX009 (ip), vehicle: saline with Tween-80): 90 % of control

CC(=O)OC1CC(n2cc(C)c(=O)[nH]c2=O)OC1COP(=O)(N1CC1(C)C)N1CC1(C)C (stereo not drawn)
T/C (dose: 25.0 mg/kg/injection, schedule: Q04DX003 (ip), vehicle: saline with Tween-80): 110 % of control
T/C [4]: 159 % of control

O=C(CCN1C(=O)c2ccccc2C1=O)C(O)CCN1C(=O)c2ccccc2C1=O (stereo not drawn)
T/C (dose: 6.25 mg/kg/injection, schedule: Q01DX005 (ip), vehicle: saline with Tween-80): 98 % of control
T/C [5]: 107 % of control
T/C [6]: 100 % of control
T/C [7]: 87 % of control

COCc1c(C)oc2c(C)c3oc(=O)cc(C)c3cc12
T/C (dose: 100.0 mg/kg/injection, schedule: Q05DX002 (ip), vehicle: saline with Tween-80): 101 % of control
T/C (dose: 200.0 mg/kg/injection, schedule: Q05DX002 (ip), vehicle: saline with Tween-80): 95 % of control
T/C (dose: 400.0 mg/kg/injection, schedule: Q05DX002 (ip), vehicle: saline with Tween-80): 107 % of control

O=C(O)c1cc(C(=O)O)c(C(=O)O)cc1C(=O)O.[NH2-].[NH2-].[NH2-].[NH2-].[Pt+2].[Pt+2]
T/C (dose: 0.78 mg/kg/injection, schedule: Q01DX005 (ip), vehicle: water): 106 % of control
T/C (dose: 1.56 mg/kg/injection, schedule: Q01DX005 (ip), vehicle: suspension in saline): 108 % of control
T/C (dose: 1.56 mg/kg/injection, schedule: Q01DX005 (ip), vehicle: water): 115 % of control
T/C (dose: 3.12 mg/kg/injection, schedule: Q01DX005 (ip), vehicle: saline): 113 % of control
T/C (dose: 3.13 mg/kg/injection, schedule: Q01DX005 (ip), vehicle: water): 119 % of control
T/C (dose: 6.25 mg/kg/injection, schedule: Q01DX005 (ip), vehicle: saline): 105 % of control
T/C (dose: 6.25 mg/kg/injection, schedule: Q01DX005 (ip), vehicle: suspension in saline): 118 % of control
T/C (dose: 9.0 mg/kg/injection, schedule: Q01DX005 (ip), vehicle: suspension in saline): 110 % of control
T/C (dose: 12.5 mg/kg/injection, schedule: Q01DX005 (ip), vehicle: suspension in saline): 161 % of control
T/C (dose: 12.5 mg/kg/injection, schedule: Q01DX005 (ip), vehicle: water): 166 % of control
T/C (dose: 25.0 mg/kg/injection, schedule: Q01DX005 (ip), vehicle: saline): 153 % of control
T/C (dose: 25.0 mg/kg/injection, schedule: Q01DX005 (ip), vehicle: suspension in saline): 174 % of control and 176 % of control
T/C (dose: 41.67 mg/kg/injection, schedule: Q01DX005 (ip), vehicle: suspension in saline): 150 % of control
T/C (dose: 50.0 mg/kg/injection, schedule: Q01DX005 (ip), vehicle: saline): 186 % of control

N/C(=N\OC(=O)Nc1ccc(CSc2ccc(Cl)cc2)o1)c1ccccn1
T/C (dose: 12.5 mg/kg/injection, schedule: Q01DX005 (ip), vehicle: Klucel (hydroxypropylcellulose) (HPC)): 106 % of control and 109 % of control
T/C (dose: 25.0 mg/kg/injection, schedule: Q01DX005 (ip), vehicle: Klucel (hydroxypropylcellulose) (HPC)): 107 % of control and 110 % of control
T/C (dose: 50.0 mg/kg/injection, schedule: Q01DX005 (ip), vehicle: Klucel (hydroxypropylcellulose) (HPC)): 110 % of control and 114 % of control and 120 % of control
T/C (dose: 100.0 mg/kg/injection, schedule: Q01DX005 (ip), vehicle: Klucel (hydroxypropylcellulose) (HPC)): 109 % of control and 111 % of control

COc1cc(C(=O)C[n+]2ccccc2)ccc1O
T/C (dose: 50.0 mg/kg/injection, schedule: Q04DX003 (ip), vehicle: saline with Tween-80): 100 % of control
T/C (dose: 100.0 mg/kg/injection, schedule: Q04DX003 (ip), vehicle: saline with Tween-80): 100 % of control
T/C [4]: 100 % of control

CCOC(=O)CCN(CC1CC=CCC1)c1cc(O)c2c(c1O)C(=O)c1ccccc1C2=O (stereo not drawn)
T/C [6]: 91 % of control
T/C [8]: 92 % of control
T/C [9]: 90 % of control
T/C [7]: 92 % of control

CC(C)CC1SCC(=O)N1c1nncs1 (stereo not drawn)
T/C [10]: 103 % of control
T/C [11]: 97 % of control
T/C [12]: 98 % of control

N#Cc1c(-c2ccc(Cl)cc2)c(-c2ccc(Cl)cc2)nn(CCCl)c1=O
T/C (dose: 100.0 mg/kg/injection, schedule: Q04DX002 (ip), vehicle: saline with Tween-80): 91 % of control
T/C (dose: 200.0 mg/kg/injection, schedule: Q04DX002 (ip), vehicle: saline with Tween-80): 100 % of control
T/C (dose: 400.0 mg/kg/injection, schedule: Q04DX002 (ip), vehicle: saline with Tween-80): 91 % of control

O=C(O)CNC(CO)C(=O)O (stereo not drawn)
T/C (dose: 25.0 mg/kg/injection, schedule: Q01DX005 (ip), vehicle: water): 100 % of control
T/C (dose: 50.0 mg/kg/injection, schedule: Q01DX005 (ip), vehicle: water): 100 % of control
T/C (dose: 100.0 mg/kg/injection, schedule: Q01DX005 (ip), vehicle: water): 95 % of control
T/C (dose: 200.0 mg/kg/injection, schedule: Q01DX005 (ip), vehicle: water): 89 % of control

NC(CC(=O)O)C(F)(F)F (stereo not drawn)
T/C [10]: 99 % of control
T/C [11]: 100 % of control
T/C [12]: 102 % of control

N#Cc1ccc(NC(=O)Nc2ccc([N+](=O)[O-])cc2Cl)cc1
T/C [10]: 93 % of control
T/C [11]: 86 % of control
T/C [12]: 89 % of control and 92 % of control

C=CCN1C(=O)c2cc(Cl)c(Cl)cc2C1=O
T/C [8]: 102 % of control
T/C [9]: 87 % of control
T/C [7]: 94 % of control

Cc1coc2c1[C@H]1OC(=O)C3=CCC[C@H](C2)[C@@]31C
T/C (dose: 7.5 mg/kg/injection, schedule: Q01DX009 (ip), vehicle: saline with Tween-80): 100 % of control
T/C (dose: 15.0 mg/kg/injection, schedule: Q01DX009 (ip), vehicle: saline with Tween-80): 100 % of control
T/C (dose: 30.0 mg/kg/injection, schedule: Q01DX009 (ip), vehicle: saline with Tween-80): 101 % of control
T/C (dose: 60.0 mg/kg/injection, schedule: Q01DX009 (ip), vehicle: saline with Tween-80): 98 % of control

CCCCCCCCCCCCCCCCCC(=O)NCNC(=O)CCCCCCCCCCCCCCCCC
T/C (dose: 4.68 mg/kg/injection, schedule: Q01DX009 (ip), vehicle: saline with Tween-80): 100 % of control
T/C (dose: 9.37 mg/kg/injection, schedule: Q01DX009 (ip), vehicle: saline with Tween-80): 100 % of control
T/C (dose: 9.37 mg/kg/injection, schedule: Q04DX003 (ip), vehicle: saline): 100 % of control
T/C (dose: 18.75 mg/kg/injection, schedule: Q01DX009 (ip), vehicle: saline with Tween-80): 90 % of control
T/C (dose: 18.75 mg/kg/injection, schedule: Q04DX003 (ip), vehicle: saline): 95 % of control

CCCCCCCCCC[N+](C)(C)CC(O)CO (stereo not drawn)
T/C [3]: 94 % of control
T/C (dose: 25.0 mg/kg/injection, schedule: Q01DX009 (ip), vehicle: saline): 105 % of control
T/C (dose: 50.0 mg/kg/injection, schedule: Q01DX009 (ip), vehicle: saline): 111 % of control

CN(C)c1ccc2cc(-n3nnc4cc([N+](=O)[O-])ccc43)c(=O)oc2c1
T/C [5]: 100 % of control
T/C [6]: 99 % of control
T/C [8]: 90 % of control
